According to publication PMC11960969, “Mdga2 deficiency leads to an aberrant activation of BDNF/TrkB signaling that underlies autism-relevant synaptic and behavioral changes in mice” (PLOS Biology, 2025):

Columns and labels:
[1] = system: TrkB signaling (pTrkB, pAkt, pmTOR); experiment: Immunoblotting of TrkB signaling in hippocampus / brain of treated mice; format: in vivo, mouse; settings: AAV-Mdga2 shRNA mice, n = 4, Fig 6E and 6H
mice [2] = experiment: Open field test; format: in vivo, mouse
Protocol: (§1) Six- to eight-week-old male mice were subjected to various behavioral tests. Mice were allowed to acclimatize in the testing room for 1 h prior to each test. Data were recorded and analyzed using Smart 3.0 video tracking system (Panlab, Harvard Apparatus).
Mice were gently placed in the center of an open field apparatus (40 × 40 × 40 cm), and allowed for a 10-min period of free movement. Total distance traveled and time spent in center were analyzed.

mice [3] = experiment: Social affiliation test; format: in vivo, mouse; settings: Mdga2+/- mice
Protocol: as §1
The test procedure was similar to that described previously. Briefly, a cylinder (8.5 cm in diameter) with a gender-matched reference mouse confined was placed at a specific location in an open field (40 cm in diameter). Tested mice were allowed to move freely in the open field for 7 min and their sniffing time with the reference mice was analyzed.

[4] = system: CA1 pyramidal neurons (mEPSC, mIPSC); experiment: Whole-cell recording of mEPSCs and mIPSCs in hippocampal slices; design: species or system mouse; settings: chronic 0.5 mg/kg i.p.
TrkB signaling = experiment: Time course of TrkB signaling inhibition in cerebrum after i.p. ANA-12 (immunoblotting); format: in vivo, mouse; settings: 0.5 mg/kg i.p., WT and Mdga2-/- mice, S4A Fig
Protocol: Equal protein amounts of total lysates from cells or mouse tissues were subjected to SDS-PAGE and immunoblotted with antibodies indicated. For Co-IP, 1 mg of protein lysates were incubated with antibodies indicated and Protein G Agarose (ThermoFisher, Cat# 20399) beads at 4 °C overnight, and immunoprecipitated proteins were then subjected to SDS-PAGE and immunoblotting. Uncropped immunoblotting images are shown in S1 Raw Images.
ANA-12 was dissolved in saline containing 10% DMSO to a final concentration of 0.5 mg/kg and intraperitoneally administered into male mice. For chronic treatment, ANA-12 was administered to 3-week-old male mice at twice/week for 3 weeks until mice reached 6 weeks of age. […]
Supplementary file pbio.3003047.s004.tif: S4 Fig Acute ANA-12 treatment temporarily rescues social deficits in Mdga2 ^+/− mice. […] (C–G) Mice were analyzed for their total travel distance in the open field test (C), their discrimination index in the novel location recognition test (D), their time spent self-grooming and bouts of self-grooming (E), their sniffing time in the social affiliation test (F), and their sociability and social novelty preferences in the three-chamber test (G). n = 15 mice per group. […] P-values were determined by two-way ANOVA with Tukey’s multiple comparisons test. ns: not significant, *p < 0.05, **p < 0.01, ***p < 0.001, ns: not significant. […]

O=C(Nc1ccccc1C(=O)NC1CCCCNC1=O)c1cc2ccccc2s1 (centres unmarked) [ANA-12, reference compound]
elevated TrkB signaling [1]: reversed the elevated TrkB signaling | locomotor activity (mice [2]; Mdga2+/- mice, chronic 0.5 mg/kg i.p. twice per week 3 weeks, Test 1 Interaction F(1,56) = 0.2753, p = 0.6019, Test 2 F(1,56) = 0.2774, p = 0.6005): did not affect the locomotor activity | locomotor activity (mice [2]; acute: 0.5 mg/kg i.p. once daily 3 days, Test 1 Interaction F(1,56) = 0.3413, p = 0.5614, Test 2 F(1,56) = 0.1904, p = 0.6643): did not affect locomotor activity | social preference (social affiliation) (mice [3]; acute 0.5 mg/kg i.p. 3 days, acute Test 1 (1 day): Interaction F(1,56) = 7.214, p = 0.0095): significantly higher social preference compared to controls in acute Test 1 | impaired social affiliation (mice [3]; chronic 0.5 mg/kg i.p., Test 1 (1 week) Interaction F(1,56) = 10.07, p = 0.0024, Test 2 (5 weeks) F(1,56) = 4.906, p = 0.0309): significantly improved impaired social affiliation in Mdga2^ +/− mice in both chronic Test 1 and chronic Test 2 | increased mEPSC amplitude and frequency ([4]; Mdga2+/- mice, CA1, n = 14 cells from 3 mice, Interaction F(1,52) = 6.023, p = 0.0175, 5.282, p = 0.0256): reversed the increased mEPSC amplitude and frequency | mIPSC frequency or amplitude ([4]; hippocampal slices CA1, n = 15 cells from 3 mice, Interaction F(1,56) = 0.5436, p = 0.4640, 0.0127, p = 0.9106): nor did chronic ANA-12 treatment affect mIPSC frequency or amplitude | time of main TrkB signaling inhibition after treatment (TrkB signaling): 16 to 24 h
